Source: the NIST ThermoML archive (doi:10.1021/acs.jced.9b00846)

Conditions: Liquid, Vibrating tube method

CC(C)C(C)C(C)C [2,3,4-trimethylpentane]
Conditions | mass density [kg/m3]
283.15 K, 130 kPa | 728.3
283.15 K, 4973 kPa | 732.2
283.15 K, 9993 kPa | 736
283.15 K, 14965 kPa | 739.6
283.15 K, 20000 kPa | 743
283.15 K, 25003 kPa | 746.3
283.15 K, 29990 kPa | 749.5
283.15 K, 35009 kPa | 752.5
283.15 K, 39961 kPa | 755.4
283.15 K, 45014 kPa | 758.3
283.15 K, 49986 kPa | 761
283.15 K, 54944 kPa | 763.6
283.15 K, 60030 kPa | 766.3
283.15 K, 65014 kPa | 768.8
288.15 K, 102 kPa | 724.3
288.15 K, 5015 kPa | 728.4
288.15 K, 9991 kPa | 732.3
288.15 K, 14975 kPa | 736
288.15 K, 20038 kPa | 739.6
288.15 K, 25021 kPa | 743
288.15 K, 29929 kPa | 746.1
288.15 K, 35037 kPa | 749.3
288.15 K, 40039 kPa | 752.3
288.15 K, 44998 kPa | 755.2
288.15 K, 49927 kPa | 757.9
288.15 K, 54967 kPa | 760.6
288.15 K, 59925 kPa | 763.2
288.15 K, 65032 kPa | 765.9
293.15 K, 111 kPa | 720.4
293.15 K, 5021 kPa | 724.6
293.15 K, 9998 kPa | 728.6
293.15 K, 14997 kPa | 732.4
293.15 K, 19997 kPa | 736.1
293.15 K, 25022 kPa | 739.6
293.15 K, 29930 kPa | 742.8
293.15 K, 34968 kPa | 746
293.15 K, 39974 kPa | 749.1
293.15 K, 45009 kPa | 752
293.15 K, 49965 kPa | 754.9
293.15 K, 54987 kPa | 757.6
293.15 K, 59945 kPa | 760.3
293.15 K, 65000 kPa | 762.9
298.15 K, 105 kPa | 716.2
298.15 K, 5072 kPa | 720.6
298.15 K, 9964 kPa | 724.7
298.15 K, 15013 kPa | 728.7
298.15 K, 20054 kPa | 732.5
298.15 K, 25008 kPa | 736
298.15 K, 29968 kPa | 739.4
298.15 K, 34937 kPa | 742.6
298.15 K, 40018 kPa | 745.8
298.15 K, 45064 kPa | 748.8
298.15 K, 50010 kPa | 751.7
298.15 K, 55015 kPa | 754.5
298.15 K, 59955 kPa | 757.2
298.15 K, 65024 kPa | 759.9
303.15 K, 100 kPa | 712
303.15 K, 4934 kPa | 716.5
303.15 K, 10038 kPa | 720.9
303.15 K, 14973 kPa | 724.9
303.15 K, 19957 kPa | 728.7
303.15 K, 25002 kPa | 732.4
303.15 K, 29980 kPa | 735.9
303.15 K, 34972 kPa | 739.3
303.15 K, 39972 kPa | 742.5
303.15 K, 44990 kPa | 745.6
303.15 K, 49984 kPa | 748.5
303.15 K, 54948 kPa | 751.4
303.15 K, 59951 kPa | 754.2
303.15 K, 65040 kPa | 756.9
308.15 K, 92 kPa | 707.8
308.15 K, 5051 kPa | 712.5
308.15 K, 9961 kPa | 716.8
308.15 K, 14959 kPa | 721
308.15 K, 20027 kPa | 725
308.15 K, 25025 kPa | 728.8
308.15 K, 29996 kPa | 732.4
308.15 K, 34959 kPa | 735.7
308.15 K, 40017 kPa | 739.1
308.15 K, 45023 kPa | 742.2
308.15 K, 49965 kPa | 745.2
308.15 K, 54977 kPa | 748.2
308.15 K, 60020 kPa | 751
308.15 K, 64995 kPa | 753.8
313.15 K, 99 kPa | 703.6
313.15 K, 4997 kPa | 708.5
313.15 K, 9998 kPa | 713.1
313.15 K, 15010 kPa | 717.4
313.15 K, 19994 kPa | 721.4
313.15 K, 25007 kPa | 725.3
313.15 K, 29995 kPa | 729
313.15 K, 35008 kPa | 732.4
313.15 K, 39993 kPa | 735.8
313.15 K, 45005 kPa | 739
313.15 K, 49990 kPa | 742.1
313.15 K, 55003 kPa | 745.1
313.15 K, 59996 kPa | 748
313.15 K, 64993 kPa | 750.8
318.15 K, 104 kPa | 699.5
318.15 K, 4961 kPa | 704.4
318.15 K, 10003 kPa | 709.2
318.15 K, 15026 kPa | 713.7
318.15 K, 19937 kPa | 717.8
318.15 K, 25012 kPa | 721.8
318.15 K, 29990 kPa | 725.5
318.15 K, 34991 kPa | 729.1
318.15 K, 39976 kPa | 732.5
318.15 K, 45028 kPa | 735.8
318.15 K, 49973 kPa | 739
318.15 K, 54916 kPa | 742
318.15 K, 59988 kPa | 744.9
318.15 K, 65015 kPa | 747.8
323.15 K, 111 kPa | 695.4
323.15 K, 5025 kPa | 700.6
323.15 K, 10013 kPa | 705.5
323.15 K, 14973 kPa | 710
323.15 K, 20028 kPa | 714.4
323.15 K, 25014 kPa | 718.4
323.15 K, 29976 kPa | 722.2
323.15 K, 34994 kPa | 725.9
323.15 K, 39992 kPa | 729.4
323.15 K, 45046 kPa | 732.8
323.15 K, 49980 kPa | 736
323.15 K, 54968 kPa | 739.1
323.15 K, 59988 kPa | 742.1
323.15 K, 65068 kPa | 745
328.15 K, 94 kPa | 691.3
328.15 K, 4971 kPa | 696.6
328.15 K, 9997 kPa | 701.7
328.15 K, 14959 kPa | 706.4
328.15 K, 19969 kPa | 710.9
328.15 K, 25055 kPa | 715.1
328.15 K, 29960 kPa | 719
328.15 K, 34966 kPa | 722.7
328.15 K, 40013 kPa | 726.3
328.15 K, 45034 kPa | 729.8
328.15 K, 50015 kPa | 733.1
328.15 K, 54973 kPa | 736.2
328.15 K, 59955 kPa | 739.2
328.15 K, 64992 kPa | 742.2
333.15 K, 95 kPa | 687.1
333.15 K, 4934 kPa | 692.6
333.15 K, 9973 kPa | 697.9
333.15 K, 14973 kPa | 702.8
333.15 K, 19993 kPa | 707.4
333.15 K, 24959 kPa | 711.6
333.15 K, 29952 kPa | 715.7
333.15 K, 34974 kPa | 719.5
333.15 K, 39961 kPa | 723.2
333.15 K, 44999 kPa | 726.7
333.15 K, 49992 kPa | 730.1
333.15 K, 54798 kPa | 733.2
333.15 K, 59952 kPa | 736.4
333.15 K, 65050 kPa | 739.5
338.15 K, 115 kPa | 683.1
338.15 K, 4978 kPa | 688.9
338.15 K, 9970 kPa | 694.3
338.15 K, 14966 kPa | 699.3
338.15 K, 19960 kPa | 703.9
338.15 K, 24994 kPa | 708.4
338.15 K, 30030 kPa | 712.5
338.15 K, 34973 kPa | 716.3
338.15 K, 39979 kPa | 720
338.15 K, 45024 kPa | 723.6
338.15 K, 50019 kPa | 727.1
338.15 K, 54928 kPa | 730.3
338.15 K, 59953 kPa | 733.5
338.15 K, 64998 kPa | 736.6
343.15 K, 109 kPa | 678.8
343.15 K, 5084 kPa | 684.9
343.15 K, 9963 kPa | 690.4
343.15 K, 15039 kPa | 695.6
343.15 K, 20010 kPa | 700.4
343.15 K, 24998 kPa | 704.9
343.15 K, 30054 kPa | 709.2
343.15 K, 35048 kPa | 713.2
343.15 K, 40023 kPa | 717
343.15 K, 44967 kPa | 720.6
343.15 K, 50023 kPa | 724.2
343.15 K, 54967 kPa | 727.5
343.15 K, 59995 kPa | 730.7
343.15 K, 64954 kPa | 733.8
348.15 K, 112 kPa | 674.5
348.15 K, 5011 kPa | 680.8
348.15 K, 10066 kPa | 686.6
348.15 K, 14992 kPa | 691.9
348.15 K, 19955 kPa | 696.8
348.15 K, 25042 kPa | 701.5
348.15 K, 29986 kPa | 705.8
348.15 K, 35004 kPa | 709.9
348.15 K, 40002 kPa | 713.9
348.15 K, 44996 kPa | 717.6
348.15 K, 49994 kPa | 721.1
348.15 K, 54995 kPa | 724.6
348.15 K, 60005 kPa | 727.9
348.15 K, 65009 kPa | 731
353.15 K, 109 kPa | 670.1
353.15 K, 4963 kPa | 676.6
353.15 K, 9919 kPa | 682.5
353.15 K, 15039 kPa | 688.2
353.15 K, 19995 kPa | 693.2
353.15 K, 24983 kPa | 698
353.15 K, 29960 kPa | 702.4
353.15 K, 34985 kPa | 706.7
353.15 K, 39983 kPa | 710.7
353.15 K, 45037 kPa | 714.5
353.15 K, 49989 kPa | 718.1
353.15 K, 54953 kPa | 721.6
353.15 K, 59909 kPa | 724.9
353.15 K, 65052 kPa | 728.2
358.15 K, 118 kPa | 665.9
358.15 K, 4955 kPa | 672.5
358.15 K, 9916 kPa | 678.7
358.15 K, 15035 kPa | 684.5
358.15 K, 19946 kPa | 689.6
358.15 K, 25037 kPa | 694.6
358.15 K, 29963 kPa | 699.2
358.15 K, 35027 kPa | 703.4
358.15 K, 40010 kPa | 707.5
358.15 K, 44955 kPa | 711.4
358.15 K, 50023 kPa | 715.1
358.15 K, 54980 kPa | 718.7
358.15 K, 59952 kPa | 722
358.15 K, 65021 kPa | 725.4
363.15 K, 101 kPa | 661.3
363.15 K, 4941 kPa | 668.3
363.15 K, 9928 kPa | 674.7
363.15 K, 15005 kPa | 680.6
363.15 K, 19958 kPa | 686
363.15 K, 24923 kPa | 691
363.15 K, 29983 kPa | 695.8
363.15 K, 34922 kPa | 700.1
363.15 K, 39992 kPa | 704.4
363.15 K, 45038 kPa | 708.4
363.15 K, 49985 kPa | 712.2
363.15 K, 54981 kPa | 715.8
363.15 K, 59985 kPa | 719.3
363.15 K, 65038 kPa | 722.6
